The subject of one series is Staphylococcus aureus. Description: Antibacterial activity against Staphylococcus aureus. The class given is functional.
The subject of series [1] is HeLa. Description: Cytotoxicity against human HeLa cells assessed as reduction in cell population to half by MTT assay. The class given is functional, cell-based. (Tetrazolium dyes change colour on reduction, which living cells bring about.)
The test system of series [2] is HeLa. The experiment in a line: Cytotoxicity against human HeLa cells assessed as reduction in cell population to midpoint between values of non-treated control and lowest population by MTT assay. The class given is functional, cell-based.
Series [3] is described as follows: Cytotoxicity against human WI-38 cells assessed as inhibition in cell growth at 100 uM by MTT assay relative to control. The class given is toxicity, cell-based.
In series [4] the test system is HeLa. The experiment in a line: Cytotoxicity against human HeLa cells assessed as reduction in cell population by MTT assay relative to control. The class given is functional.
Another series relates to Saccharomyces cerevisiae. Description: Antifungal activity against Saccharomyces cerevisiae assessed as reduction in fungal growth at 80 ug by paper disk assay. The class given is functional, organism-based. Particulars: dose 80.0 µg.
Another series relates to Cryptococcus neoformans. Description: Antifungal activity against Cryptococcus neoformans assessed as reduction in fungal growth at 80 ug by paper disk assay. The class given is functional, organism-based. Particulars: dose 80.0 µg.
For series [5], the system named is HeLa. Description: Cytotoxicity against human HeLa cells assessed as inhibition in cell growth at 200 uM by MTT assay. The class given is functional, cell-based.
Series [6] deals with Epicoccum nigrum. Description: Antifungal activity against wild type Epicoccum nigrum assessed as reduction in fungal growth at 80 ug by paper disk assay. The class given is functional, organism-based. Particulars: dose 80.0 µg.
Another series relates to Escherichia coli. Description: Antibacterial activity against Escherichia coli. The class given is functional, organism-based.
A short description of series [7]: Cytotoxicity against human WI-38 cells assessed as reduction in cell population by MTT assay relative to control. The class given is toxicity, cell-based.
Series [8] has as its system Epicoccum nigrum. The experiment in a line: Antifungal activity against Epicoccum nigrum deltaepcB assessed as reduction in fungal growth at 80 ug by paper disk assay. The class given is functional, organism-based. Particulars: dose 80.0 µg.
The subject of series [9] is HeLa. Description: Cytotoxicity against human HeLa cells assessed as relative cell population at 100 uM by MTT assay relative to control. The class given is functional.
The test system of series [10] is HeLa. The experiment in a line: Cytotoxicity against human HeLa cells assessed as relative cell population at 50 uM by MTT assay relative to control. The class given is functional.
Series [11] is described as follows: Cytotoxicity against human WI-38 cells assessed as reduction in cell population to midpoint between values of non-treated control and lowest population by MTT assay. The class given is toxicity, cell-based.
Series [12] can be described thus: Cytotoxicity against human WI-38 cells assessed as reduction in cell population to half by MTT assay. The class given is toxicity, cell-based.
In another series the test system is WI-38. Description: Cytotoxicity against human WI-38 cells assessed as inhibition in cell proliferation at 10 to 100 uM by MTT assay. Particulars: wi-38, 100 µM, dose 10-100 µM. The class given is toxicity, cell-based.
Series [13] relates to HeLa. The experiment in a line: Cytotoxicity against human HeLa cells assessed as inhibition in cell proliferation at 10 to 100 uM by MTT assay. Particulars: dose 10-100 µM. The class given is functional, cell-based.

Converted amounts (≈) assume the structure as drawn. The source made the active and inactive calls. Where only a bound is given, the exact number is not on record here.

Usually MIC stands for the smallest concentration in the dilution series that meets the test's criterion for growth inhibition. Usually IC50 stands for the concentration needed to halve the response being measured. As a reminder, the EC50 is the concentration needed to bring the measured effect to its halfway point. In general, inhibition refers to the relative decrease from the control value, in per cent. A word on the Emax: it is the size of the effect at its maximum, as opposed to the concentration needed.

On to `C[C@@H](CCCCCCCCC(=O)CCCCCCCCC[C@H](O)CO[C@@H]1O[C@H](CO)[C@@H](O)[C@H](O)[C@@H]1O)/C(O)=C1/C(=O)N[C@@H](Cc2ccc(O)cc2)C1=O`, for which, in the series on Staphylococcus aureus, the MIC was 7.2 µg/mL (≈ 9.6 µM).

Regarding `COc1cccc2c1C(=O)c1c(O)c3c(c(O)c1C2=O)C[C@@](O)(C(=O)CO)C[C@@H]3O[C@H]1C[C@H](N)[C@H](O)[C@H](C)O1` [DOXORUBICIN], in the series with HeLa [1], the IC50 was 5.1 µM. Moreover, the 50% effective concentration (EC50) in the series on HeLa [2] turned out to be 4.3 µM. Besides, the inhibition at 100 µM in series [3] was < 10%. The Emax in the series with HeLa [4] turned out to be 15%.

`C[C@@H](CCCCCCCCC(=O)CCCCCCCCC[C@H](O)CO)/C(O)=C1/C(=O)N[C@@H](Cc2ccc(O)cc2)C1=O` displayed an MIC against Staphylococcus aureus of 2.8 µg/mL (≈ 4.76 µM).

As to `C[C@@H](CCCCCCCCCCCCCCO[C@@H]1O[C@H](CO)[C@@H](O)[C@H](O)[C@@H]1O)C(=O)C1=C(O)N(C)[C@@H](C)C1=O`, the IC50 is 76 µM with HeLa [1] (read-out: IC50) and 38 µM in series [12]. The EC50 with HeLa [2] worked out at 70 µM; in series [11], 34 µM. For the same compound, the outcome with Saccharomyces cerevisiae was Active. For the same compound, the outcome in the series with Cryptococcus neoformans, in the series on Epicoccum nigrum [6], with Escherichia coli and with Epicoccum nigrum [8] was inactive. The inhibition entry with HeLa [5] was “Active”. The Emax was 4.6% in series [7] and 3.2% with HeLa [4]. The Activity with HeLa [9] is given as 14%; in the series with HeLa [10] it was 88%. In addition, 64 µg/mL (≈ 115 µM) was the least that counted as inhibitory in the series on Staphylococcus aureus (MIC).

For `C[C@@H](CCCCCCCCCCCCCCO)C(=O)C1=C(O)N(C)[C@@H](C)C1=O`, the IC50 in the series on HeLa [1] (read-out: IC50) worked out at 19 µM; in series [12] it was 15 µM. For the same compound, the values for the EC50 (in the series on HeLa [2]; in series [11]) were 12 µM and 9.1 µM, respectively. In the series on Saccharomyces cerevisiae, the result was Active. Besides, the Activity entry with WI-38 is recorded as “Toxic”. Also, the result in the series on Cryptococcus neoformans, in the series on Epicoccum nigrum [6], with Escherichia coli and in the series with Epicoccum nigrum [8] was inactive. In addition, the inhibition result in the series on HeLa [13] is “Active”. For the same compound, the Emax in series [7] was determined as 20%; in the series with HeLa [4], 23%. It took 1 µg/mL (≈ 2.53 µM) to inhibit growth in the series on Staphylococcus aureus (MIC).

The values above are taken from ChEMBL document CHEMBL5390236, “Biological production of epicoccamide-aglycone and its cytotoxicity” (Bioorg Med Chem Lett, 2023).
